In patent US20260297081A1, “COMPOUNDS AND METHODS OF TREATING CANCERS” (Cullgen Inc., priority 2023, published 2026):

Target: CDK4 (Homo sapiens, UniProt P11802+Q16531)
Experiment: CDK4 percentage degradation in Calu-1 cells (Table 6)
Assay type: cell-based
Parameters: Cells that express cyclin D1-3 and CDK4/6 proteins were treated with heterobifunctional compounds; endogenous in cells; host or cells: Calu-1
Details: 16 hours; for inhibition at 0.04 µM: 40 nM; for inhibition at 0.2 µM: 200 nM
Experimental: Calu-(cells were treated with heterobifunctional compounds at 40 nM or 200 nM for 16 hours A: protein percentage degradation […]; B: protein percentage degradation <80%, and ≥50%; C: protein percentage degradation <50%, and ≥30%; D; protein percentage degradation […]; -, data not available.
Calu-1, T47D, MCF7, HCC1428 and other cells were cultured at 37° C. with 5% CO2 in RPMI 1640 or DMEM medium supplemented with 10% fetal bovine serum. Cells were authenticated using the short tandem repeat (STR) assays. Mycoplasma test results were negative. For palbo-resistant cell model, T47D cells were cultured long-term to resistance in the presence of 1 μM Palbociclib. Cells were deemed resistant when growing in the presence of Palbo at the same rate as parental cells.
Cultured cells were washed with cold PBS once and lysed in cold RIPA buffer supplemented with protease inhibitors and phosphatase inhibitors (Beyotime Biotechnology). The solutions were then incubated at 4 ? for 30 min with gentle agitation to fully lysed cells. Cell lysates were centrifuged at 13,000 rpm for 10 min at 4 ? and pellets were discarded. Total protein concentrations in the lysates were determined following BCA assays (Beyotime Biotechnology). Cell lysates were mixed with Laemmli loading buffer and heated at 99° C. for 5 min. Proteins were resolved on SDS-PAGE and visualized using Western ECL Substrate kits on a ChemiDoc MP Imaging system (Bio-Rad). Protein bands were quantitated using the Image Lab software provided by Bio-Rad.

Sequence of CDK4 (P11802 2-303 limits assumed): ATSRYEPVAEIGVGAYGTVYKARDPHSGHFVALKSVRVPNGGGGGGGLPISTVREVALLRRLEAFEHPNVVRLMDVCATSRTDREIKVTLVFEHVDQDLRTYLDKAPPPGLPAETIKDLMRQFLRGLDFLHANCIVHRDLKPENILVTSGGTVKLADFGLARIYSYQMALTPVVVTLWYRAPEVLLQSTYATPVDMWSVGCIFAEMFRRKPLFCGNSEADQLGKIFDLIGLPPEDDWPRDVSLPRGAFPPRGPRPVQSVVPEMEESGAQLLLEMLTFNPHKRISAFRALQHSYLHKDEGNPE
Sequence of CDK4 (P24385 whole entry partner): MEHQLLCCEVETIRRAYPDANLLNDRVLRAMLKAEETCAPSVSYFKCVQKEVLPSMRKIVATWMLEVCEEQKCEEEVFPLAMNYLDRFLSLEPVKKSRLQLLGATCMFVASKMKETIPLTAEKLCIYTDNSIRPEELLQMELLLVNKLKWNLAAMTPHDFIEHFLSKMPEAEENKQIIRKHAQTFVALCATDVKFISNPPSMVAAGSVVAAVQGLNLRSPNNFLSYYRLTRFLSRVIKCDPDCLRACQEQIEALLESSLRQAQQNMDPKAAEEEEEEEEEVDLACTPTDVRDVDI
Sequence of CDK4 (Q16531 2-1140 limits assumed): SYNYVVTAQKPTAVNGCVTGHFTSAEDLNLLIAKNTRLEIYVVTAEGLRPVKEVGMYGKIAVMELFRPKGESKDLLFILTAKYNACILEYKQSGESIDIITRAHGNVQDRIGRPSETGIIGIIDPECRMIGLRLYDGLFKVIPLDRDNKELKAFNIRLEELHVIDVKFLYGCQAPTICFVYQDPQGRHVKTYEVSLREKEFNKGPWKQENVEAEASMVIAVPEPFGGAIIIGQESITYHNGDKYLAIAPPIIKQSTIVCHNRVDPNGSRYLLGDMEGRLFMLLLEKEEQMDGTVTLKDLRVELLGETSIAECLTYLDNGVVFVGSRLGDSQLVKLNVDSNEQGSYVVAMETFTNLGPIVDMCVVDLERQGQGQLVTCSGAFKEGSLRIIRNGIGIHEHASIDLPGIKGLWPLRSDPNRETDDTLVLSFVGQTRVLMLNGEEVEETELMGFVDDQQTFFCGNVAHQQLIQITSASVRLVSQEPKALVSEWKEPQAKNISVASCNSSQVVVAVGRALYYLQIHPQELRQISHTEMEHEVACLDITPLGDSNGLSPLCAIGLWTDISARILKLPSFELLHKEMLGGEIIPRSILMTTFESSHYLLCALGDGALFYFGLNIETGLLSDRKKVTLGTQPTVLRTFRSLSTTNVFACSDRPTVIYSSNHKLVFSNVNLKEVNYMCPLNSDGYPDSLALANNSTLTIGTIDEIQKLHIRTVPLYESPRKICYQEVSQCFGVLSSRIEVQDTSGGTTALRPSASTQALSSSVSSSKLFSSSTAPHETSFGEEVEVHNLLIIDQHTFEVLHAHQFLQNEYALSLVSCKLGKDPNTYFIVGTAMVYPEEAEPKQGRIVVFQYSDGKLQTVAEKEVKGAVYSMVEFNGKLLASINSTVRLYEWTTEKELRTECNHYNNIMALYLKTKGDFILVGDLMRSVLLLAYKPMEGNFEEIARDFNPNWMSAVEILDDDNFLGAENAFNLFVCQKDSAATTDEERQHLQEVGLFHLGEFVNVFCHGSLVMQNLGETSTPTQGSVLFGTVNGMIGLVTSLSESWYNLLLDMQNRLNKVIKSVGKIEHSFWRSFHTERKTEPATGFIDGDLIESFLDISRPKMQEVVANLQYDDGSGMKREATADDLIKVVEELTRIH

| inhibition at 0.04 µM [%] | inhibition at 0.2 µM [%] | Compound |
| --- | --- | --- |
| < 30 | < 30 | CNc1ccc(C(=O)Nc2ccc(N(C)C)nn2)c(N2CCC(CCNC(=O)CN3CCN(c4ccc(Nc5ncc6c(C)c(C(C)=O)c(=O)n(C7CCCC7)c6n5)nc4)CC3)CC2)n1 [CPD-42, 2-(4-(2-(2-(4-(6-((6-Acetyl-8-cyclopentyl-5-methyl-7-oxo-7,8-dihydropyrido[2,3-d]pyrimidin-2-yl)amino)pyridin-3-yl)piperazin-1-yl)acetamido)ethyl)piperidin-1-yl)-N-(6-(dimethylamino)pyridazin-3-yl)-6-(methylamino)nicotinamide] |
| 50 to 80 | 50 to 80 | CNc1ccc(C(=O)Nc2ccc(C)c(C)n2)c(NCCCCCNC(=O)CN2CCN(c3ccc(Nc4ncc5c(C)c(C(C)=O)c(=O)n(C6CCCC6)c5n4)nc3)CC2)n1 [CPD-109, 2-((5-(2-(4-(6-((6-Acetyl-8-cyclopentyl-5-methyl-7-oxo-7,8-dihydropyrido[2,3-d]pyrimidin-2-yl)amino)pyridin-3-yl)piperazin-1-yl)acetamido)pentyl)amino)-N-(5,6-dimethylpyridin-2-yl)-6-(methylamino)nicotinamide] |
| < 30 | 50 to 80 | CNc1ccc(C(=O)Nc2ccc(N(C)C)nn2)c(NC2CC3(C2)CC(C(=O)N2CCN(c4ccc(Nc5ncc6c(C)c(C(C)=O)c(=O)n(C7CCCC7)c6n5)nc4)CC2)C3)n1 (stereo not drawn) [CPD-140, 2-((6-(4-(6-((6-Acetyl-8-cyclopentyl-5-methyl-7-oxo-7,8-dihydropyrido[2,3-d]pyrimidin-2-yl)amino)pyridin-3-yl)piperazine-1-carbonyl)spiro[3.3]heptan-2-yl)amino)-N-(6-(dimethylamino)pyridazin-3-yl)-6-(methylamino)nicotinamide] |
| 50 to 80 | 50 to 80 | CNc1ccc(C(=O)Nc2ncc(C)o2)c(NC2CC3(CC(NC(=O)CN4CCN(c5ccc(Nc6ncc7c(C)c(C(C)=O)c(=O)n(C8CCCC8)c7n6)nc5)CC4)C3)C2)n1 (stereo not drawn) [CPD-246, 2-((6-(2-(4-(6-((6-acetyl-8-cyclopentyl-5-methyl-7-oxo-7,8-dihydropyrido[2,3-d]pyrimidin-2-yl)amino)pyridin-3-yl)piperazin-1-yl)acetamido)spiro[3.3]heptan-2-yl)amino)-6-(methylamino)-N-(5-methyloxazol-2-yl)nicotinamide] |
| 30 to 50 | 50 to 80 | [2H]C([2H])([2H])Nc1ccc(C(=O)Nc2cc(C)on2)c(NC2CC3(CC(NC(=O)CN4CCN(c5ccc(Nc6ncc7c(C)c(C(C)=O)c(=O)n(C8CCCC8)c7n6)nc5)CC4)C3)C2)n1 (stereo not drawn) [CPD-225, 2-((6-(2-(4-(6-((6-acetyl-8-cyclopentyl-5-methyl-7-oxo-7,8-dihydropyrido[2,3-d]pyrimidin-2-yl)amino)pyridin-3-yl)piperazin-1-yl)acetamido)spiro[3.3]heptan-2-yl)amino)-6-((methyl-d3)amino)-N-(5-methylisoxazol-3-yl)nicotinamide] |
| < 30 | 30 to 50 | CC(=O)c1c(C)c2cnc(Nc3ccc(N4CCN(CC(=O)NC5CC6(C5)CC(Nc5nc(C7CC7)ccc5C(=O)Nc5cccc(C7CC7)n5)C6)CC4)cn3)nc2n(C2CCCC2)c1=O (stereo not drawn) [CPD-138, 2-((6-(2-(4-(6-((6-Acetyl-8-cyclopentyl-5-methyl-7-oxo-7,8-dihydropyrido[2,3-d]pyrimidin-2-yl)amino)pyridin-3-yl)piperazin-1-yl)acetamido)spiro[3.3]heptan-2-yl)amino)-6-cyclopropyl-N-(6-cyclopropylpyridin-2-yl)nicotinamide] |
| < 30 | 50 to 80 | CNc1ccc(C(=O)Nc2ccc(N(C)C)c(C3CC3)n2)c(NC2CC3(CC(NC(=O)CN4CCN(c5ccc(Nc6ncc7c(C)c(C(C)=O)c(=O)n(C8CCCC8)c7n6)nc5)CC4)C3)C2)n1 (stereo not drawn) [CPD-177, 2-((6-(2-(4-(6-((6-acetyl-8-cyclopentyl-5-methyl-7-oxo-7,8-dihydropyrido[2,3-d]pyrimidin-2-yl)amino)pyridin-3-yl)piperazin-1-yl)acetamido)spiro[3.3]heptan-2-yl)amino)-N-(6-cyclopropyl-5-(dimethylamino)pyridin-2-yl)-6-(methylamino)nicotinamide] |
| < 30 | 30 to 50 | CNc1ccc(C(=O)Nc2cc(C)on2)c(NC2CC(NC(=O)CN3CCN(c4ccc(Nc5ncc6c(C)c(C(C)=O)c(=O)n(C7CCCC7)c6n5)nc4)CC3)C2)n1 (stereo not drawn) [CPD-198, 2-((3-(2-(4-(6-((6-acetyl-8-cyclopentyl-5-methyl-7-oxo-7,8-dihydropyrido[2,3-d]pyrimidin-2-yl)amino)pyridin-3-yl)piperazin-1-yl)acetamido)cyclobutyl)amino)-6-(methylamino)-N-(5-methylisoxazol-3-yl)nicotinamide] |
| < 30 | < 30 | CNc1ccc(C(=O)NC2CC(CN(C)C)C2)c(NCCCCCNC(=O)CN2CCN(c3ccc(Nc4ncc5c(C)c(C(C)=O)c(=O)n(C6CCCC6)c5n4)nc3)CC2)n1 (stereo not drawn) [CPD-65, 2-((5-(2-(4-(6-((6-Acetyl-8-cyclopentyl-5-methyl-7-oxo-7,8-dihydropyrido[2,3-d]pyrimidin-2-yl)amino)pyridin-3-yl)piperazin-1-yl)acetamido)pentyl)amino)-N-(3-((dimethylamino)methyl)cyclobutyl)-6-(methylamino)nicotinamide] |
| 30 to 50 | 50 to 80 | CNc1ccc(C(=O)Nc2ccc(N(C)C)nn2)c(NC2CC3(C2)CC(OC(C)(C)C(=O)N2CCN(c4ccc(Nc5ncc6c(C)c(C(C)=O)c(=O)n(C7CCCC7)c6n5)nc4)CC2)C3)n1 (stereo not drawn) [CPD-216, 2-((6-((1-(4-(6-((6-acetyl-8-cyclopentyl-5-methyl-7-oxo-7,8-dihydropyrido[2,3-d]pyrimidin-2-yl)amino)pyridin-3-yl)piperazin-1-yl)-2-methyl-1-oxopropan-2-yl)oxy)spiro[3.3]heptan-2-yl)amino)-N-(6-(dimethylamino)pyridazin-3-yl)-6-(methylamino)nicotinamide] |
| 50 to 80 | 50 to 80 | CNc1ccc(C(=O)Nc2ccc(N(C)C)nn2)c(NC2CC(CNC(=O)C3(CN4CCN(c5ccc(Nc6ncc7c(C)c(C(C)=O)c(=O)n(C8CCCC8)c7n6)nc5)CC4)CC3)C2)n1 (stereo not drawn) [CPD-172, 2-((3-((1-((4-(6-((6-acetyl-8-cyclopentyl-5-methyl-7-oxo-7,8-dihydropyrido[2,3-d]pyrimidin-2-yl)amino)pyridin-3-yl)piperazin-1-yl)methyl)cyclopropane-1-carboxamido)methyl)cyclobutyl)amino)-N-(6-(dimethylamino)pyridazin-3-yl)-6-(methylamino)nicotinamide] |
| 50 to 80 | > 80 | CNc1ccc(C(=O)Nc2ccc(N(C)C)nn2)c(NC2CC(CC(=O)N3CCN(c4ccc(Nc5ncc6c(C)c(C(C)=O)c(=O)n(C7CCCC7)c6n5)nc4)CC3)C2)n1 (stereo not drawn) [CPD-148, 2-((3-(2-(4-(6-((6-acetyl-8-cyclopentyl-5-methyl-7-oxo-7,8-dihydropyrido[2,3-d]pyrimidin-2-yl)amino)pyridin-3-yl)piperazin-1-yl)-2-oxoethyl)cyclobutyl)amino)-N-(6-(dimethylamino)pyridazin-3-yl)-6-(methylamino)nicotinamide] |
| < 30 | < 30 | CNc1ccc(C(=O)Nc2ccc(N(C)C)nn2)c(NC(=O)CN2CCN(c3ccc(Nc4ncc5c(C)c(C(C)=O)c(=O)n(C6CCCC6)c5n4)nc3)CC2)n1 [CPD-194, 2-(2-(4-(6-((6-acetyl-8-cyclopentyl-5-methyl-7-oxo-7,8-dihydropyrido[2,3-d]pyrimidin-2-yl)amino)pyridin-3-yl)piperazin-1-yl)acetamido)-N-(6-(dimethylamino)pyridazin-3-yl)-6-(methylamino)nicotinamide] |
| < 30 | 30 to 50 | CNc1ccc(C(=O)Nc2cccc(C(C)C)n2)c(NC2CC3(CC(NC(=O)CN4CCN(c5ccc(Nc6ncc7c(C)c(C(C)=O)c(=O)n(C8CCCC8)c7n6)nc5)CC4)C3)C2)n1 (stereo not drawn) [CPD-76, 2-((6-(2-(4-(6-((6-Acetyl-8-cyclopentyl-5-methyl-7-oxo-7,8-dihydropyrido[2,3-d]pyrimidin-2-yl)amino)pyridin-3-yl)piperazin-1-yl)acetamido)spiro[3.3]heptan-2-yl)amino)-N-(6-isopropylpyridin-2-yl)-6-(methylamino)nicotinamide] |
| < 30 | 50 to 80 | CNc1ccc(C(=O)Nc2cn(C)c(C(C)C)n2)c(NC2CC3(CC(NC(=O)CN4CCN(c5ccc(Nc6ncc7c(C)c(C(C)=O)c(=O)n(C8CCCC8)c7n6)nc5)CC4)C3)C2)n1 (stereo not drawn) [CPD-195, 2-((6-(2-(4-(6-((6-acetyl-8-cyclopentyl-5-methyl-7-oxo-7,8-dihydropyrido[2,3-d]pyrimidin-2-yl)amino)pyridin-3-yl)piperazin-1-yl)acetamido)spiro[3.3]heptan-2-yl)amino)-N-(2-isopropyl-1-methyl-1H-imidazol-4-yl)-6-(methylamino)nicotinamide] |
